Assay results published in patent US6683114B2, “Treatment of psoriasis” (Eli Lilly and Company, priority 2000, dated 2004).
Structures can show the parent of a compound that is named as a salt.

System: plaque-like psoriasis
Test: Treatment of a subject with moderately severe plaque-like psoriasis (case report, Example 1)
Type: in vivo, human
Details: person, plaque-like psoriasis of legs; 60 mg twice daily for 12 consecutive days
Experimental: The subject presented with moderately severe plaque-like psoriasis of their legs. The subject had suffered from psoriasis for most of their life, and the condition had worsened immediately prior to the present study. […] The subject was treated with 60 mg of tomoxetine hydrochloride, twice daily for 12 consecutive days.

CNCC[C@@H](Oc1ccccc1C)c1ccccc1 [tomoxetine hydrochloride, (R)-(−)-N-methyl-3-(2-methylphenoxy)-3-phenylpropylamine]
Clinical outcome of psoriasis lesions at final assessment: significant improvement
